The structures appear in SMILES notation.

The target of one data set is Histamine H2 receptor (Rattus norvegicus, UniProt P25102). In words: Affinity to the Histamine H2 receptor was determined expressed in CHO cell using [125I]iodoaminopotentidine as radioligand. It is filed as cell-based.
Data set [1] is described as follows: pKa2 (heterocyclic ring). It is filed as physicochemical. Conditions: read-out: pKa2.
Data set [2] is described as follows: pKa1 (aliphatic amine). Conditions: read-out: pKa1. The class given is physicochemical.
Data set [3] has as its target Histamine H3 receptor (Cavia porcellus) (UniProt Q9JI35). In words: Tested for affinity towards Histamine H3 receptor in electrically stimulated guinea pig jejunum. It is filed as tissue-based.
Another data set addresses Histamine H1 receptor (Cavia porcellus, UniProt P31389). In words: Tested for affinity towards H1 receptor in guinea pig ileum. The class given is tissue-based. Conditions: read-out: pA2 (converted).
For data set [4], the target named is Histamine H2 receptor (Cavia porcellus) (UniProt P47747). In words: Histamine H2 receptor activity was determined on the isolated spontaneously beating guinea pig right atrium. Conditions: Cardiac atrium. It is filed as tissue-based.
Histamine H2 receptor (Cavia porcellus), sequence (P47747 whole entry): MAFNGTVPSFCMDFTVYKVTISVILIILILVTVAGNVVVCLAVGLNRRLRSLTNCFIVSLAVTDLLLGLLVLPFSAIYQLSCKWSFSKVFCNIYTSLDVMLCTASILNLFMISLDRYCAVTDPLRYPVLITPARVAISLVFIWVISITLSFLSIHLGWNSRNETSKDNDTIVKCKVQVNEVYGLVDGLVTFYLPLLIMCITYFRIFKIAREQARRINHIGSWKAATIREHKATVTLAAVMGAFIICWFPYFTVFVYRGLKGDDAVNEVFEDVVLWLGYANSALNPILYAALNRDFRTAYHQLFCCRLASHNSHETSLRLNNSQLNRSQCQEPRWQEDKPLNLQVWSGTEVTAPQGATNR

Histamine H2 receptor, sequence (P25102 whole entry): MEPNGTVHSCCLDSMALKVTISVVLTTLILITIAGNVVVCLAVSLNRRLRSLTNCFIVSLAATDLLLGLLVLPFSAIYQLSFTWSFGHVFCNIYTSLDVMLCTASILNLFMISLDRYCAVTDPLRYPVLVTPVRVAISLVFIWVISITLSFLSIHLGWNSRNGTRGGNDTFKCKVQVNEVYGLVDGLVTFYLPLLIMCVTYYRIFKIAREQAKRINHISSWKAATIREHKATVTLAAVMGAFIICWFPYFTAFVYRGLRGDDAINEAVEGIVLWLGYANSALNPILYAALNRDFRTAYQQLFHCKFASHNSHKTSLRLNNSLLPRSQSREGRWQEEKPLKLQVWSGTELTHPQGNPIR
Histamine H1 receptor, sequence (P31389 whole entry): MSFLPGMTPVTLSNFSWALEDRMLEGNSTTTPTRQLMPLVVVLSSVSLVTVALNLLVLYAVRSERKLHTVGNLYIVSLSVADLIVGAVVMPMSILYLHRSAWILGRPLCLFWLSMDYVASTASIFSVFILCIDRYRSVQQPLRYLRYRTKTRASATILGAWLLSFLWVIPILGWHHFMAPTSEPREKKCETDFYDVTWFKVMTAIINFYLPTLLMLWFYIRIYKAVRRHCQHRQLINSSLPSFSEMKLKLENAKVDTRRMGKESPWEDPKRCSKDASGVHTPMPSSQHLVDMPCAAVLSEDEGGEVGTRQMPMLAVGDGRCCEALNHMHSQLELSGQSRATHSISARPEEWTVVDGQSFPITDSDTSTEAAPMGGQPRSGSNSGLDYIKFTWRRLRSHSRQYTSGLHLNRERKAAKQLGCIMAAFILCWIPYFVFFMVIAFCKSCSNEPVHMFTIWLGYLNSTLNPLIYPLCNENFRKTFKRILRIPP
Histamine H3 receptor (Cavia porcellus), sequence (Q9JI35 whole entry): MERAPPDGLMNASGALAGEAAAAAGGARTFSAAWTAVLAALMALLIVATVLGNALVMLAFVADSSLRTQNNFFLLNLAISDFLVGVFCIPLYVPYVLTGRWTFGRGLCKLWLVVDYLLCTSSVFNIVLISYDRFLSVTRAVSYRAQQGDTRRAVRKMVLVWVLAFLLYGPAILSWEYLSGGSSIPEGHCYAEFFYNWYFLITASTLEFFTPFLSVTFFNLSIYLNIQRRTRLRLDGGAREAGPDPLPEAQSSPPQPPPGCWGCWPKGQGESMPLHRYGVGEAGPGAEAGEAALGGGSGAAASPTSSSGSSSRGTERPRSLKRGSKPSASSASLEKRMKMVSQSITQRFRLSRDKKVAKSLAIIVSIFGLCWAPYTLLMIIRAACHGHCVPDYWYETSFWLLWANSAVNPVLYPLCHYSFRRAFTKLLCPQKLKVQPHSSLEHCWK

Turning to `Cc1nc(N)sc1CCN` [AMTHAMINE], at Histamine H2 receptor, binding was put at a Kd of 11.5 µM. The pKa is 5.4 in data set [1] and 9.15 in data set [2].
For `NCCc1c[nH]cn1` [HISTAMINE] the same measures were 117 µM, 5.93 and 9.32.
For the compound `Cc1nc(N)[se]c1CCN`, the pD2 in data set [3] is 4.44; in data set [4] it was 6.41. The Kb on Histamine H1 receptor was 141 µM. In addition, the affinity on Histamine H2 receptor, expressed as Kd, was 9.77 µM. In addition, the pKa in data set [1] came to 5.78; in data set [2], 9.21.

The values above are taken from ChEMBL document CHEMBL1159163, “Amselamine, a new selective histamine H2-receptor agonist” (Bioorg Med Chem Lett, 1994).
